Positions count from the first letter of the chain named. pIC50: −log10 of the molar value.
Assays:
[1] = target: T1, MLKL F148A executioner domain (Homo sapiens, UniProt Q8NB16, F148A); assay: Functional NMR assay (detachment of α-helix 6), F148A variant; type: biochemical
T1 construct: 80 µM MLKL N-terminal executioner domain (residues 1 to 154) was used; GST (thrombin cleavage site) (cleaved yes)
T1 sequence (Q8NB16 1-154 F148A): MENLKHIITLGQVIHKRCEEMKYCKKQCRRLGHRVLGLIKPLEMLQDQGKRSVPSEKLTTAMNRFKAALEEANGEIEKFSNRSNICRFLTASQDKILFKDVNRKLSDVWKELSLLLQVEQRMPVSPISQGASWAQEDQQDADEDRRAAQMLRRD
From the text: To test the significance of the additional interaction between α-helix 6 and the four-helix bundle provided by the xanthine compounds stacking to the phenyl ring of Phe148, we used a described functional NMR assay ([12]). Binding of phytic acid (IP6) and the detergent β-D-nonylmaltoside (NM) led to the detachment of α-helix 6, which can be monitored in ^1H,^15N-correlation spectra by the altered chemical shift of the Hε1–Nε1 correlation of Trp133 and the backbone N–H correlation of Ala141 ([12]). […] Adding 12 mM NM or 500 µM IP6 led to the appearance of a second very weak peak reporting on the detached α-helix 6 with a population of the activated state (pact) of 1% and 4%, respectively (Fig. 3). […]
Fig. 3. […] The spectra depicted in A are measured with the WT protein and in B with the F148A variant. […] The asterisk means that no active conformation could be detected. Double asterisks indicate data not determined.
For the functional NMR assay ^1H,^15N-correlation spectra were recorded on a Bruker Avance III HD 600-MHz NMR spectrometer equipped with a cryogenic QCI probe in 2.5-mm NMR tubes at 298 K. Spectra were recorded with 64 complex points in the indirect dimension, 96 scans, and an interscan delay of 2 s. […] Spectra were analyzed, and peaks were integrated in CcpNnmr analysis ([39]).

[2] = target: T2, human MLKL executioner domain (WT) (Homo sapiens, UniProt Q8NB16); assay: Functional NMR assay (detachment of α-helix 6), WT; type: biochemical; conditions: WT
T2 construct: 80 µM MLKL N-terminal executioner domain (residues 1 to 154) was used; GST (thrombin cleavage site) (cleaved yes)
T2 sequence (Q8NB16 1-154): T1 sequence (Q8NB16 1-154 F148A) with A148F
From the text: To test the significance of the additional interaction between α-helix 6 and the four-helix bundle provided by the xanthine compounds stacking to the phenyl ring of Phe148, we used a described functional NMR assay ([12]). Binding of phytic acid (IP6) and the detergent β-D-nonylmaltoside (NM) led to the detachment of α-helix 6, which can be monitored in ^1H,^15N-correlation spectra by the altered chemical shift of the Hε1–Nε1 correlation of Trp133 and the backbone N–H correlation of Ala141 ([12]). […] Adding 12 mM NM or 500 µM IP6 led to the appearance of a second very weak peak reporting on the detached α-helix 6 with a population of the activated state (pact) of 1% and 4%, respectively (Fig. 3). […] Combining 12 mM NM and 500 µM IP6 induced a dramatic increase of the population of the detached state (pact 86%). […] To further validate the importance of the π–π stacking interaction between the xanthine and Phe148 in α-helix 6, we carried out the functional NMR assay with the F148A-mutated variant of MLKL. The removal of the phenyl group induced significant CSPs localized in close proximity to the mutation site, due to the removal of ring currents and, therefore, strong electronic changes. […] MLKL F148A was more sensitive to the addition of 12 mM NM, 500 µM IP6, or the combination thereof. In the spectra in the presence of NM and the combination of NM and IP6, a third Trp133 peak appeared, most likely reporting on a state similar to the active state. […] Thus, the stacking interaction of the xanthine core to Phe148 is vital for the inhibitory activity of these MLKL inhibitors.
Fig. 3. (A and B) The region of the NMR ^1H,^15N-correlation spectra of the MLKL executioner domain (protein concentration: 80 µM) containing the cross-peaks of Trp133 Nε1–Hε1 in the auto-inhibited state where α-helix 6 is attached to the four-helix bundle (inact. state) and in the active, detached state (act. state) are shown. The unliganded state is depicted in black, with 12 mM NM in cyan; 500 µM IP6 in orange; 500 µM Cpd 3 in blue; 12 mM NM and 500 µM IP6 in red; and 12 mM NM, 500 µM IP6, and 500 µM Cpd 3 in green. The spectra depicted in A are measured with the WT protein and in B with the F148A variant. […] Dark gray bars correspond to the WT, while light gray bars correspond to the F148A variant. The asterisk means that no active conformation could be detected. Double asterisks indicate data not determined.
For the functional NMR assay ^1H,^15N-correlation spectra were recorded on a Bruker Avance III HD 600-MHz NMR spectrometer equipped with a cryogenic QCI probe in 2.5-mm NMR tubes at 298 K. Spectra were recorded with 64 complex points in the indirect dimension, 96 scans, and an interscan delay of 2 s. For the samples, 80 µM MLKL N-terminal executioner domain (residues 1 to 154) was used in a 20 mM sodium phosphate buffer at pH 7.5 containing 150 mM sodium chloride and 1 mM TCEP. For the different conditions, either 500 µM IP6, 12 mM NM, or a combination of the two were used. The xanthine compounds were tested at 500 µM, while NSA, due to limited solubility, was tested only at 200 µM, which is sufficient to saturate MLKL. Spectra were analyzed, and peaks were integrated in CcpNnmr analysis ([39]).

[3] = system: U937 cells; assay: U937 apoptosis assay; type: cell-based; conditions: Homo sapiens, U-937, 100 ng/mL huTNFα plus 3 µM NSA, read-out: U937 APOP IC50
Description: (§1) MLKL antagonists were also evaluated in a necroptosis assay with U937 cells ([26]) (ATCC catalog no. CRL-1593.2). The assay procedure with U937 cells was as described for the Jurakt FADD^−/− necroptosis assay with the following modifications: 8,000 cells were seeded per well, and, in addition to the recombinant huTNFα, cells were also incubated in the presence of 10 µM (f.c.) carbobenzoxy-valyl-alanyl-aspartyl-[O-methyl]-fluoromethylketone (zVAD-fmk) (Enzo Life Sciences catalog no. ALX-260-020). Low controls (0% CTL) were defined as cells treated with 100 ng/mL recombinant huTNFα plus 10 µM zVAD-fmk.
Furthermore, MLKL antagonists were tested in a U937 apoptosis assay in the presence of 3 µM (f.c.) NSA (Tocris catalog no. 5025) and 100 ng/mL (f.c.) recombinant huTNFα in the same way as described for the U937 necroptosis assay. Low controls (0% CTL) were defined as cells treated with 100 ng/mL recombinant huTNFα plus 3 µM NSA.
(§2) All cellular assays were done for Cpd 1, Cpd 2, Cpd 3, Cpd 4, and Cpd 5 in duplicate and in quadruplet for NSA.

[4] = system: U937 cells; assay: U937 cytotox assay; type: cell-based; conditions: Homo sapiens, U-937, without huTNFα and zVAD-fmk, read-out: U937 TOX IC50
Description: as §1
MLKL antagonists were tested in cytotox assays by using Jurkat FADD^−/− and U937 cells according to the assay procedures described for the necroptosis assays, but without treatment with recombinant huTNFα and/or zVAD-fmk. High controls (100% CTL, no effect) were defined as cells treated with DMSO, and low controls (0% CTL) were defined as medium without cells (0% CTL, maximal effect).
as §2

## Cn1c(=O)c2c(nc(S(C)(=O)=O)n2C)n(CC#Cc2cccc(O)c2)c1=O [Cpd 3]
[1]; 500 µM compound alone
  Induction of the active state by compound alone: small population of the active state
[1]; 12 mM NM + 500 µM IP6 + 500 µM compound
  Population of the activated state (pact), α-helix 6 detached: 90%
[2]; 80 µM protein, 12 mM NM + 500 µM IP6 + 500 µM compound, without compound pact 86%
  Population of the activated state (pact), α-helix 6 detached: 19%
[2]; compound alone (Cpd 3 500 µM, NSA 200 µM), no NM/IP6
  Induction of the active state by compound alone: did not induce the active state
[3]
  pIC50: < 4.00
[4]
  pIC50: 4.59

Reference: article PMC7777204, “Locking mixed-lineage kinase domain-like protein in its auto-inhibited state prevents necroptosis” (Proceedings of the National Academy of Sciences of the …, 2020)
